Test system: rabbit model of dry eye (corneal staining)
Assay: Inhibition of corneal staining in a rabbit model of dry eye (ConA lacrimal gland inflammation plus desiccation, methylene blue uptake)
Assay type: in vivo, New Zealand white rabbits
Settings: 1 μM, topical QID 50 μl, methylene blue corneal staining (A660) vs BSS vehicle
Description: Compounds 173 and 175 were evaluated for their ability to inhibit corneal staining in a rabbit model of dry eye, as per the following experimental protocol.
New Zealand white (NZA) rabbits (approximately 2.5 kg) were obtained from Myrtle's Rabbitry (Thompson Station, Tenn.). Animals were maintained in a controlled environment with a 12-hour on/off light cycle at 65±5° F. and at least 30% humidity. All aspects of animal handling, housing and experimentation conformed to the ARVO Statement for the Use of Animals in Ophthalmic and Vision Research.
Rabbits were randomized and dosed topically QID with 50 μl of test article or BSS® solution beginning 24 hours prior to lacrimal gland injection. […]
Desiccation was initiated three days following ConA injection by placing conscious rabbits into an environmental chamber (20%-30% humidity/75° F.). […] The concentration of the extracted dye was determined spectrophotometrically by measuring its absorbance at λ=660 nanometers (A660). Data are expressed as mean±standard deviation (S.D.). Percent inhibition was calculated as {1−[(A660test item−A660Normal)/(A660BSS−A660Normal)]}×100, where A660test item is the absorbance of dye from ConA-injected eyes dosed with the test item, A660Normal is the absorbance of dye from saline-injected eyes, and A660BSS is the absorbance of dye in ConA-injected eyes dosed with BSS® solution vehicle.

## CCCCC[C@H](O)/C=C/C=C\C/C=C\C/C=C\CCCC(=O)O [Compound 15S-HETE, (15S)-(5Z,8Z,11Z,13E)-15-hydroxy-eicosa-5,8,11,13-tetraenoic acid]
Experiment 1
  % Inhibition ± S.D.: 70 ± 18%
Experiment 2
  % Inhibition ± S.D.: 77% ± 18%
